# Read-outs that look alike come from different tables or passages of the source. Residues, ends and D or L forms follow the SMILES beside them.
# Experiments:
# [1] = molecular target: c-Src SH3 domain-GST fusion protein (Gallus gallus, UniProt P00523); test: Fluorescence polarization direct binding assay, c-Src SH3; set-up: species or system chicken; conditions: 50 nM fluorescently labeled ligand, read-out: Kd, c-Src SH3
# Experimental: Polarization was measured by excitation with vertically polarized light at 485 nm and the fluorescence emission detected at 530 nm in both the vertical and horizontal directions. An average of five measurements were recorded for each well. Samples were equilibrated at room temperature for 25 min before analysis, a time sufficient for the binding reactions to reach equilibrium. The polarization data were fit using Kaleidagraph v3.6 software to Eq. 5, which is derived from first principles without assumptions. […] In this equation, Pobs is the observed polarization value at any given concentration of target protein (GST•SH3 domain). Pmin is the polarization of peptide^Flu at 50 nM in the absence of target protein. Pmax is the maximum polarization of peptide^Flu at saturation with target protein. Kd is the equilibrium dissociation constant. […] Free fits are shown. Kd values were estimated as described.
# Hck kinase = molecular target: T1, Hck kinase (Homo sapiens, UniProt P08631); test: Hck kinase activation, NADH-coupled assay; format: biochemical; conditions: for Activity / Fold-Activation: Activator 50 micromolar; for Fold-Activation: rate with ligand / rate without ligand; for EC50: read-out: Kact (concentration of activator at half-maximal activation)
# T1 construct: His6 (N); made in house; host or cells: HighFive insect cells, co-infected with Hck and Csk baculovirus
# T1 sequence (P08631 whole entry): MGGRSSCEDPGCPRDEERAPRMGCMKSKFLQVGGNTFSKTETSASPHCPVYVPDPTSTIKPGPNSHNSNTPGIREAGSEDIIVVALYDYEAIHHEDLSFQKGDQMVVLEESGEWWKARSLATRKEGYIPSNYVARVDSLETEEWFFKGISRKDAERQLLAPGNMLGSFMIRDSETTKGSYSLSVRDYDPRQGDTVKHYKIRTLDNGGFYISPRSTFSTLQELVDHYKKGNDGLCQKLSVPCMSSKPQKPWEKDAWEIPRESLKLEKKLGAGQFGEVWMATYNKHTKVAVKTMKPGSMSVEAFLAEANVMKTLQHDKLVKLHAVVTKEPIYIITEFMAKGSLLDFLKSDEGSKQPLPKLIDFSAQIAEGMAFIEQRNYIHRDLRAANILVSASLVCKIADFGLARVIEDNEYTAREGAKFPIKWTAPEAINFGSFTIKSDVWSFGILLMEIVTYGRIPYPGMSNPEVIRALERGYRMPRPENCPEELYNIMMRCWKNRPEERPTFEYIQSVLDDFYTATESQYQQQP
# Experimental: Activation of Hck kinase was measured using a validated NADH-coupled assay as described. Briefly, purified Hck kinase (15 micromolar) was first pre-incubated with 500 micromolar ATP and 20 mM MgCl2 for about 30 min on ice to initiate autophosphorylation of Y416. The autophosphorylated product (0.55 micromolar final concentration) was then incubated in Hck Reaction Buffer (20 mM MgCl2, 0.1 mM DTT, 20 μg/mL BSA, 100 mM HEPES (pH 7.5)) for 10 min at room temperature with the indicated concentration of Nef or miniature protein. At this time the remaining assay components (1 mM PEP, 0.2 mM NADH, 6 U pyruvate kinase (Type II from rabbit muscle, Sigma), 6 U L-lactic dehydrogenase (Type II from rabbit muscle, Sigma), 600 micromolar substrate peptide, and 500 micromolar ATP) were added to initiate the reaction (total volume 200 microliters) and the absorbance at 340 nm was monitored every 10 sec for 10 min using a Beckman DU 730 UVN is Spectrophotomer. The activation constant Kact for each ligand was calculated from the initial rate as a function of ligand concentration as previously described, using Eq. 6. Fold activation was calculated by dividing the rate in the presence of ligand by the rate in the absence of ligand.
# va=Vact[L]/(Kact±[L]) Equation 6.
# In this equation va is velocity measured in the presence of ligand minus the velocity measured in its absence; Vact is the maximal activated velocity minus the velocity measured in the absence of ligand; [L] is the concentration of activator and Kact is concentration of activator at half-maximal activation.
# [2] = Sedimentation equilibrium analytical ultracentrifugation of aPP variants, monomer-n-mer fit (self-association); format: physicochemical; conditions: for n (stoichiometry of the self-associated complex): monomer-n-mer fit; for n (stoichiometry of the self-associated complex) / lnKA when n = 4 / % monomer at 30 μM: 25° C.; for lnKA when n = 4: monomer-tetramer; for Kd (self-association, tetramer): n = 4, 25° C., calculated from ln KA; for % monomer at 30 μM: 30 μM peptide
# Experimental: Analytical ultracentrifugation experiments were performed using peptide solutions prepared in Tris.Cl buffer (25 mM Tris base, 50 mM NaCl, (pH 8.0)) at the appropriate concentrations (5 micromolar to 200 micromolar). Samples were then centrifuged to equilibrium at 25° C. at 42,000, 50,000, and 60,000 rpm. Data were collected with a 0.001 cm step size and successive scans were initiated at 2 h intervals. Samples were judged to have reached equilibrium when the radial concentration gradient remained unchanged over three successive scans using the Match module of Heteroanalysis software v1.1.19. The solvent density (ρ, rho) and partial specific volume ( ν, nu) were calculated using the Sedimentation Interpretation Program “Sednterp” software v1.08.
# The data for each peptide (multiple concentrations at three speeds) was first fit globally to an equation describing the sedimentation of an ideal species of molecular weight Mn (Eq. 1) using Heteroanalysis software v1.1.19:
# where C represents the concentration of the sedimenting species at distances r and r0 cm from the center of rotation; ν (nu) is the partial specific volume of the sedimenting species in cc/g; ρ (rho) is the density of the supporting buffer in g/cc; ω (omega) is the angular velocity of the rotor (radians/s); Mn is the “molar” molecular weight of sedimenting species (g/mol); R is the universal gas constant (8.315×10^7 ergs K^−1 mol^−1) and T is the temperature in degrees Kelvin.
# In order to quantify this self-association, the data for each peptide was next fit globally to a monomer-n-mer equilibrium model using Eq. 2:
# where n is the stoichiometry of the self-associated complex. Errors were calculated for n and lnKA using f-statistics to two standard deviations.
# Samples were prepared in PBS buffer and centrifuged at speeds of 42,000 (41), 50,000 (42), or 60,000 RPM (43) at 25° C. Experimental data are shown as points; lines indicate the best fit to a monomer-n-mer model described by Eq. 2.
Kd ([1]; PBS pH 7.4),Activity (Hck kinase),Fold-Activation (Hck kinase),EC50 (Hck kinase),Kd [1],n (stoichiometry of the self-associated complex) [2],lnKA when n = 4 [2],"Kd (self-association, tetramer) [2]",% monomer at 30 μM [2],Compound
3.68 ± 0.06 µM,83.6 ± 6.0 nmol/s,8 ± 3,–,–,–,–,–,–,CC[C@H](C)[C@H](NC(=O)[C@H](CC(C)C)NC(=O)[C@H](CC(=O)O)NC(=O)[C@H](CCC(=O)O)NC(=O)[C@@H](NC(=O)[C@@H]1CCCN1C(=O)[C@H](C)NC(=O)[C@H](CC(=O)O)NC(=O)[C@H](CC(=O)O)NC(=O)CNC(=O)[C@@H]1CCCN1C(=O)[C@H](CC(N)=O)NC(=O)[C@H](CCCNC(=N)N)NC(=O)[C@@H]1CCCN1C(=O)[C@@H]1CCCN1C(=O)[C@H](CC(C)C)NC(=O)[C@@H]1CCCN1C(=O)[C@@H]1CCCN1C(=O)[C@H](C)N)C(C)C)C(=O)N[C@@H](CCCNC(=N)N)C(=O)N[C@@H](Cc1ccccc1)C(=O)N[C@@H](Cc1ccc(O)cc1)C(=O)N[C@@H](CC(=O)O)C(=O)N[C@@H](CC(N)=O)C(=O)N[C@@H](CC(C)C)C(=O)N[C@@H](CCC(N)=O)C(=O)N[C@@H](CCC(N)=O)C(=O)N[C@@H](Cc1ccc(O)cc1)C(=O)N[C@@H](CC(C)C)C(=O)N[C@@H](CC(N)=O)C(=O)N[C@H](C(=O)N[C@H](C(=O)N[C@H](C(=O)N[C@@H](CCCNC(=N)N)C(=O)N[C@@H](Cc1c[nH]cn1)C(=O)N[C@@H](CCCNC(=N)N)C(=O)N[C@@H](Cc1ccc(O)cc1)C(N)=O)[C@@H](C)O)C(C)C)C(C)C [PP1] (H-APPLPPRNPGDDAPVEDLIRFYDNLQQYLNVVTRHRY-NH2)
1.3 ± 0.2 µM,138.8 ± 7.6 nmol/s,13 ± 5,48 ± 13 µM,–,–,–,–,–,CC[C@H](C)[C@H](NC(=O)[C@H](CC(C)C)NC(=O)[C@H](CC(=O)O)NC(=O)[C@H](CCC(=O)O)NC(=O)[C@@H](NC(=O)[C@@H]1CCCN1C(=O)[C@H](C)NC(=O)[C@H](CC(=O)O)NC(=O)[C@H](CC(=O)O)NC(=O)CNC(=O)[C@H](CCCNC(=N)N)NC(=O)[C@H](CC(N)=O)NC(=O)[C@H](CCCNC(=N)N)NC(=O)[C@@H]1CCCN1C(=O)[C@@H]1CCCN1C(=O)[C@H](CC(C)C)NC(=O)[C@@H]1CCCN1C(=O)[C@@H]1CCCN1C(=O)[C@H](C)N)C(C)C)C(=O)N[C@@H](CCCNC(=N)N)C(=O)N[C@@H](Cc1ccccc1)C(=O)N[C@@H](Cc1ccc(O)cc1)C(=O)N[C@@H](CC(=O)O)C(=O)N[C@@H](CC(N)=O)C(=O)N[C@@H](CC(C)C)C(=O)N[C@@H](CCC(N)=O)C(=O)N[C@@H](CCC(N)=O)C(=O)N[C@@H](Cc1ccc(O)cc1)C(=O)N[C@@H](CC(C)C)C(=O)N[C@@H](CC(N)=O)C(=O)N[C@H](C(=O)N[C@H](C(=O)N[C@H](C(=O)N[C@@H](CCCNC(=N)N)C(=O)N[C@@H](Cc1c[nH]cn1)C(=O)N[C@@H](CCCNC(=N)N)C(=O)N[C@@H](Cc1ccc(O)cc1)C(N)=O)[C@@H](C)O)C(C)C)C(C)C [PP2] (H-APPLPPRNRGDDAPVEDLIRFYDNLQQYLNVVTRHRY-NH2)
–,83.9 ± 5.4 nmol/s,7 ± 3,48 ± 22 µM,0.35 ± 0.04 µM,–,–,–,–,CC[C@H](C)[C@H](NC(=O)[C@H](CC(C)C)NC(=O)[C@H](CC(=O)O)NC(=O)[C@H](CCC(=O)O)NC(=O)[C@@H](NC(=O)[C@@H]1CCCN1C(=O)[C@H](C)NC(=O)[C@H](CC(=O)O)NC(=O)[C@H](CCCNC(=N)N)NC(=O)[C@@H]1CCCN1C(=O)[C@H](CCCNC(=N)N)NC(=O)[C@H](CC(N)=O)NC(=O)[C@H](CCCNC(=N)N)NC(=O)[C@@H]1CCCN1C(=O)[C@@H]1CCCN1C(=O)[C@H](CC(C)C)NC(=O)[C@@H]1CCCN1C(=O)[C@@H]1CCCN1C(=O)[C@H](C)N)C(C)C)C(=O)N[C@@H](CCCNC(=N)N)C(=O)N[C@@H](Cc1ccccc1)C(=O)N[C@@H](Cc1ccc(O)cc1)C(=O)N[C@@H](CC(=O)O)C(=O)N[C@@H](CC(N)=O)C(=O)N[C@@H](CC(C)C)C(=O)N[C@@H](CCC(N)=O)C(=O)N[C@@H](CCC(N)=O)C(=O)N[C@@H](Cc1ccc(O)cc1)C(=O)N[C@@H](CC(C)C)C(=O)N[C@@H](CC(N)=O)C(=O)N[C@H](C(=O)N[C@H](C(=O)N[C@H](C(=O)N[C@@H](CCCNC(=N)N)C(=O)N[C@@H](Cc1c[nH]cn1)C(=O)N[C@@H](CCCNC(=N)N)C(=O)N[C@@H](Cc1ccc(O)cc1)C(N)=O)[C@@H](C)O)C(C)C)C(C)C [PP3] (H-APPLPPRNRPRDAPVEDLIRFYDNLQQYLNVVTRHRY-NH2)

# The remaining lines, values behind:
Compound,Kd ([1]; PBS pH 7.4),Activity (Hck kinase),Fold-Activation (Hck kinase),EC50 (Hck kinase),Kd [1],n (stoichiometry of the self-associated complex) [2],lnKA when n = 4 [2],"Kd (self-association, tetramer) [2]",% monomer at 30 μM [2]
GPSQPTAPGDDAPVEDLIRFYDNLQQYLNVVTRHRY [aPP^Y7A],–,–,–,–,–,3.77,when n = 4 26.28,3.9×10^−12 M^3,–
GPSQPTAPGDDAPVEDLIRFYDNLRQYLNVVTRHRY [aPP^Y7AQ25R],–,–,–,–,–,4.06,when n = 4 29.34,1.8 × 10^−13 M^3,78%
GPSQPTAPGDDAVPEDLIRFYDNLQQYLNVVTRHRY [aPP^Y7AP13VV14P],–,–,–,–,–,4.48,when n = 4 27.92,7.5 × 10^−13 M^3,90%
GPSQPTYPGDDAPVEDLIRAYDNLQQYLNVVTRHRY [aPP^F20A],–,–,–,–,–,3.87,when n = 4 23.29,7.6×10^−11 M^3,–
"aPP^Y7AT6E: SEQ ID NO: 8, CPSQPEAPGDDAPVEDLIRFYDNLQQYLNVVTRHRY (Table 1 prints GPSQPE...)",–,–,–,–,–,3.88,–,2.0 × 10^−13 M^3,79%
